Data on eight compounds can be found in patent publication US20220372031A1, “NOVEL TRICYCLIC AROMATIC HETEROCYCLIC COMPOUND, PREPARATION METHOD THEREFOR, PHARMACEUTICAL COMPOSITION AND APPLICATION THEREOF” (SHANGHAI LONGWOOD BIOPHARMACEUTICALS CO., LTD., priority 2019, published 2022).

This assay deals with T1, PD-1/PD-L1 (Homo sapiens, UniProt Q9NZQ7).
T1 construct: Recombinant human PD-L1 protein (19-238) with a His-tagged at the C-terminus; purchased AcroBiosystems PD1-H5229 (PD-L1); PD1-H5257 (PD-1)
T1 sequence (Q9NZQ7 19-238): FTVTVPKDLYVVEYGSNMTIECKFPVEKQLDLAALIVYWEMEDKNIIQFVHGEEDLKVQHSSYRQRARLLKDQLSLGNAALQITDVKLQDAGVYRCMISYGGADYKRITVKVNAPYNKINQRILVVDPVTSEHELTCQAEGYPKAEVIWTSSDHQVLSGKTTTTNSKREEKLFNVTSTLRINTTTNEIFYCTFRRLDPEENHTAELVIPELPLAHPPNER
The assay can be described thus: PD-1/PD-L1 homogeneous time-resolved fluorescence (HTRF) binding assay. As to conditions: PD-1/PD-L1 HTRF binding, ~3 nM PD1, 10 nM PD-L1, 25° C., PBS pH 7.4. The protocol:
Assays were performed in standard black 384-well polystyrene plates and a final volume was 20 μL. The inhibitor was first serially diluted with DMSO and added to the wells of the plate, followed by the addition of other reaction components. The final concentration of DMSO in the assay was 1%. Assays were performed at 25° C. in PBS buffer (pH 7.4) containing 0.05% Tween-20 and 0.1% BSA. Recombinant human PD-L1 protein (19-238) with a His-tagged at the C-terminus was purchased from AcroBiosystems (PD1-H5229). Recombinant human PD-1 protein (25-167) with an Fc tag at the C-terminus was also purchased from AcroBiosystems (PD1-H5257). The PD-L1 and PD-1 proteins were diluted in assay buffer and then […] of the solution was extracted and added to the wells of the plate. Plates were centrifuged and proteins and inhibitors were preincubated for 40 minutes. After incubation, 0.1 μl of HTRF detection buffer containing europium […] labeled anti-human IgG (PerkinElmer-AD0212), Fc-specific and anti-His SureLight®-Allophycocyanin (APC, PerkinElmer-AD0059H) conjugated antibodies was added. After centrifugation, the plates were incubated at 25° C. for 60 minutes. Data was read in a PHERAstar FS plate reader (665 nm/620 nm ratio). Final concentrations in the assay were ˜3 nM PD1, 10 nM PD-L1, 1 nM europium anti-human IgG, and 20 nM anti-His-allophycocyanin. Activity data were fitted using GraphPad Prism 5_0 software to derive IC50 values for inhibitors.
On the technique in general: In TR-FRET formats the signal depends on donor and acceptor labels being close together.
Broadly, the IC50 is the concentration at which inhibition is half-maximal. Low readings indicate greater potency in that assay, high ones weaker potency in that assay. Consider `COc1nc(-c2cccc(-c3cccc(-c4cc5cc6c(c(C#N)c5o4)CC[C@H]6N4CC[C@@H](C(=O)NS(=O)(=O)C5(C)CC5)C4)c3C)c2C)cnc1CN1CC[C@@H](O)C1` [Compound 264], for which the IC50 was no more than 10 nM. Consider `COc1nc(-c2cccc(-c3cccc(-c4cc5cc6c(c(C#N)c5o4)CC[C@H]6N4CC[C@@H](C(=O)NS(=O)(=O)C5(C)CC5)C4)c3Cl)c2Cl)cnc1CN1CC[C@@H](O)C1` [Compound 265], for which the concentration for half-maximal inhibition (IC50) was no more than 10 nM. With `COc1nc(-c2cccc(-c3cccc(-c4cc5cc6c(c(C#N)c5o4)CC[C@H]6N4CC[C@@H](C(=O)NS(=O)(=O)C5(C)CC5)C4)c3Cl)c2C)cnc1CN1CC[C@@H](O)C1` [Compound 266] the figure was no more than 10 nM. Regarding `COc1nc(-c2cccc(-c3cccc(-c4cc5cc6c(c(C#N)c5o4)CC[C@H]6N4CC[C@@H](C(=O)NS(=O)(=O)C5(C)CC5)C4)c3C)c2Cl)cnc1CN1CC[C@@H](O)C1` [Compound 267], the IC50 was no more than 10 nM. Compound `COc1nc(-c2cccc(-c3cccc(-c4nc5cc6c(c(C#N)c5o4)CC[C@H]6N4CC[C@@H](C(=O)O)C4)c3Cl)c2C)cnc1CNC[C@@H]1CCC(=O)N1` [Compound 268] yielded an IC50 of no more than 10 nM. With `COc1nc(-c2cccc(-c3cccc(-c4cc5cc6c(c(C#N)c5o4)CC[C@H]6N4CC[C@@H](C(=O)O)C4)c3Cl)c2C)cnc1CNC[C@@H]1CCC(=O)N1` [Compound 271] the figure was no more than 10 nM; with `Cc1c(Nc2nccc3cc(CNC[C@@H]4CCC(=O)N4)cnc23)cccc1-c1cccc(-c2cc3cc4c(c(C#N)c3o2)CC[C@H]4N2CC[C@@H](C(=O)O)C2)c1Cl` [Compound 274], no more than 10 nM.

Compound `Cc1c(Nc2nccc3cc(CN4CC[C@@H](O)C4)cnc23)cccc1-c1cccc(-c2cc3c4c(cc([N+](=O)[O-])c3o2)C(N2CC(C(=O)O)C2)CCC4)c1C` (some centres unmarked) [Compound 280] returned an IC50 greater than 100 nM.
